From patent publication US20240335462A1, “SULFUR/PHOSPHORUS-CONTAINING ARYL COMPOUND AND APPLICATION THEREOF” (MEDSHINE DISCOVERY INC., priority 2021, published 2024)

Assays:
Assay type in all cases: cell-based
[1] = test system: TYK2 signaling pathway (IFN-α/pSTAT5); experiment: IFN-α-induced STAT phosphorylation in human whole blood
Procedure: (§1) The purpose of this experiment was to detect the inhibitory effect of the compound on the JAK-STAT signaling pathway activated by cytokines in human whole blood or platelet-rich plasma. Fresh human whole blood/platelets were placed in a 96-well plate. The test compound was added and incubated for 1 hour, followed by stimulation with various cytokines. The corresponding STAT phosphorylation levels in different cell populations were analyzed using flow cytometer by means of surface antibody staining and intracellular phosphorylated antibody staining. The experiments using the cytokines IFN-α, […] as stimulants were conducted in human whole blood, whereas the experiment using the cytokine TPO as a stimulant was conducted in platelet-rich plasma.
(§2) • a) Fresh blood from volunteers was collected using EDTA anticoagulant tubes. • b) 90 μL per well of whole blood was rapidly seeded into a 96-well plate and incubated in a cell culture incubator for 15 minutes. […] The plate was centrifuged at 500×g for 8 minutes, and the supernatant was discarded. • g) The cell pellet was washed once with pre-cooled PBS. • h) After discarding the supernatant, anti-human CD3 antibody was added thereto, followed by incubation at room temperature for 40 minutes. • i) The plate was centrifuged at 500×g for 8 minutes, then the supernatant was discarded, and the cells were washed twice with 200 μL of pre-cooled PBS. • j) The cells were resuspended in 200 μL of pre-cooled Perm Buffer III per well and permeabilized on ice for 60 minutes. • k) The plate was centrifuged at 600×g for 8 minutes, then the supernatant was discarded, and the cells were washed twice with pre-cooled PBS. • l) Intracellular staining with anti-pSTAT5 antibody was carried out, followed by incubation at room temperature for 60 minutes. • m) The cells were centrifuged at 600×g for 8 minutes, washed twice with PBS, resuspended in 200 μL of PBS, and detected using the CytoFlex S flow cytometer. • n) Data analysis was conducted using FlowJo and GraphPad Prism 8 software.
(§3) Data were analyzed using FlowJo software. […]

[2] = test system: JAK2/2 signaling pathway (TPO/pSTAT5); experiment: TPO-induced STAT phosphorylation in human platelet-rich plasma
Procedure: as §1
• a) Fresh blood from volunteers was collected using EDTA anticoagulant tubes and centrifuged at 200 g for 20 minutes to prepare platelet-rich plasma (PRP). • b) 90 μL per well of PRP was rapidly seeded into a 96-well plate and incubated in a cell culture incubator for 15 minutes. […] The plate was then incubated in the incubator for 15 minutes. • d) After incubation, the plate was centrifuged at 1000×g for 10 minutes, then the supernatant was discarded, and the cells were washed twice with 200 μL of PBS. • e) PE-anti-human CD61 antibody was added to each well, followed by incubation at room temperature for 40 minutes. • f) After incubation, the plate was centrifuged at 1000×g for 10 minutes, then the supernatant was discarded, and the cells were washed twice with 200 μL of PBS. • g) The cells were resuspended in 200 μL of pre-cooled Perm Buffer III and permeabilized on ice for 60 minutes. • h) The plate was centrifuged at 1000×g for 10 minutes, then the supernatant was discarded, and the cells were washed twice with pre-cooled PBS. • i) Intracellular anti-pSTAT5 phosphorylated antibody was added thereto, followed by incubation at room temperature for 60 minutes. • j) The cells were washed twice with PBS and resuspended in 200 μL of PBS, and then detected using the CytoFlex S flow cytometer. […]

[3] = test system: JAK1/3 signaling pathway (IL-2/pSTAT5); experiment: IL-2-induced STAT phosphorylation in human whole blood
Procedure: as §1, §2, §3

Compound	IC50 [1] [nM]	IC50 [2] [µM]	IC50 [3] [µM]
CNC(=O)c1nnc(NC(=O)C2CC2)cc1Nc1cccc(-c2ncc(S(=N)(=O)C(C)C)cn2)c1OC (single isomer, unassigned) [WX-011A]	23.1	> 100	11.2
CNC(=O)c1cnc(NC(=O)C2CC2)cc1Nc1cccc(-c2ncc(S(=O)(=O)C(C)C)cn2)c1OC [WX-019]	29.7	> 100	33.8
CNC(=O)c1cnc(NC(=O)C2CC2)cc1Nc1cccc(-c2ccc(S(=O)(=O)C(C)C)cn2)c1OC [WX-020]	40.3	> 100	> 100
